Source: US4073938A, “19,20-Bis-nor-prostenoic acids as hypolipemic compounds” (Istituto Biochimico Italiano di Loredana Lorenzini S.a.s., priority 1974, dated 1978)
Where a name gives a salt, the structure may show the parent alone.

Key:
[1] = system: ulcer induced by phenylbutazone; assay: Anti-ulcerous activity, ulcer from phenylbutazone (9-hydroxy sodium salt); type: in vivo, Female rats of the Wistar stock
Method: (§1) Also in this case the anti-ulcerous activity is tested on an ulcer induced by aspirin and by phenylbutazone. In both cases lesions of various sizes are formed in the glandular section of the stomach.
Female rats of the Wistar stock weighing 170 ± 180 g are again involved. The animals are held in constant ambient conditions for at least 2 weeks before the start of the test. 24 hours before the start of the test the animals are made to fast, while they are allowed water at will.
Each test group consists of 10 animals. The substance in question is administered a first time 15 minutes before administration of phenylbutazone (200 mg/kg × 1 ml in 0.5% tragacanth gum solution orally), and a second time 21/2 hours after. The doses of the substance in question amount to 2.5, 10, 50, 100, 200 and respectively 400 mg/kg × 2 ml of 0.5% tragacanth gum solution, orally.
5 hours after the administration of phenylbutazone the animals are killed, the stomachs are extracted, fixed and with the aid of a stereomicroscope magnifying 8 times a point count evaluation is carried out. The lesions of the gastric mucosa are expressed in % of the stomach surface.

[2] = Triglyceridemia and cholesterolemia in rats given alcohol 10%; type: in vivo, Male Sprague-Dawley rats; conditions: 1 week endoperitoneal once daily (CPIB, BBA 200 mg/kg; C83 50 mg/kg)
Method: | Treatment for 1 week CPIB - BBA - 200 mg/kg endoperitoneal; C83 | 50mg/kg endoperitoneal; only one daily administration. | Male Sprague-Dawley rats 150 gr. | Groups of 6 rats.

[3] = Triglycerides and cholesterol in rats on Nath diet, endoperitoneal or by mouth; type: in vivo, male Sprague-Dawley rats; conditions: 1 week
Method: Treatment with 25 mg/kg/die for 1 week on male Sprague-Dawley rats of 150

mouse = assay: LD50 by mouth in the mouse; type: in vivo
Method: (§2) a. LD50 by mouth in the mouse about 3000 mg/kg
(§3) 25 gr of XVI are dissolved in 400 ml of water with NaOH 15% to pH 9, filtered and lyophilized : 24 gr of sodium salt of XVI as a white solid are obtained, humidity (K. Fisher) 2.08%, no U.V. absorption, equivalent weight found 301.7, I.R. bands at 3400, 1765, 1565, 1460, 1420, 1378 cm^-1.
(§4) After 20 hours at 20°, the solvent is evaporated in vacuo, the residue is dissolved in 1300 ml of water treated with 120 ml of acetic acid, extracted with chloroform. After solvent evaporation, 65.1 gr of the compound XVIII are obtained, as an oil, I.R. bands at 3420, 3100, 1710 cm^-1. 35 gr of the compound XVIII are dissolved in 600 ml of water with NaOH to pH 9. The solution is filtered and lyophilized: 35.5 gr of sodium salt of 9-hydroxy-19,20-bis-nor-prostanoic acid are obtained, as white solid, humidity (K.Fisher) 1.73%, no U.V. absorption, equivalent weight found 320, I.R. bands at 3400, 3300, 1565, 1460, 1390 cm^-1, LD50 by mouth in mice about 3000 mg/kg.

[4] = LD50 by mouth in the mouse; type: in vivo; conditions: in vivo, po
Method: as §2, §3, §4

[5] = Deepness and rapidity test (untitled table 6); type: in vivo, Male Sprague-Dawley rats; conditions: 200 mg/kg endoperitoneal; for Rapidity ± E.S.: controls 3.4 ± 0.3; for Deepness (mm ± E.S.): controls 74.9 ± 6.2
Method: | Treatment with the dose of 200 mg/kg endoperitoneal, one or two hours | before sacrifice. Male Sprague-Dawley rats with an average weight of 150 | gr.

ulcer induced by aspirin = assay: Anti-ulcerous activity, ulcer from aspirin (9-hydroxy sodium salt); type: in vivo, Female rats of the Wistar stock; conditions: for Ulcer scale (x ± Sx): controls 18.67 ± 3.11
Method: as §1
Female rats of the Wistar stock weighing 150-175 g are used. 24 hours before the start of the test the animals are made to fast, while they are allowed water at will.
Each test group consists of 12 animals. The aspirin is administered orally as a suspension (45 mg/ml of 0.5% carboxymethyl cellulose suspension, 1 ml per animal). The substance in question is administered 10 minutes before the administration of aspirin, and 21/2 hours after, each time in doses of […] of 100 mg/kg × 10 ml of distilled water. The animals are killed 5 hours after the administration of aspirin, the stomachs are extracted and with a stereomicroscope the number and size of the lesions is evaluated.

[6] = Triglycerides and cholesterol in rats on Nath diet, 25 and 50 mg/kg endoperitoneal; type: in vivo, male Sprague-Dawley rats; conditions: 1 week
Method: Treatment with 25 and 50 mg/kg/die endoperitoneal for 1 week on male
Sprague-Dawley rats of 150 gr.

[7] = system: smooth musculature (trachea of guinea-pig, fundal end stomach of rat, uterus of rat, portal vein of rat); assay: General pharmacology: prostaglandino-similar activity on smooth muscle preparations; conditions: 100 μg/ml
Method: The compound C83 has been tested pharmacologically in order to show a probable prostaglandino-similar activity.
The compound C83 has been studied on the above parameters:
1. Trachea of guinea-pig.
2. Strips of fundal end stomach of rat.
5. Cardiovascular effects.
This compound has been tested at the concentration of 100 μg/ml in all preparations above mentioned.

Glycemia test at fast = type: in vivo, Male Sprague-Dawley rats; conditions: 200 mg/kg endoperitoneal, 2 hours before the test
Method: b. Glycemia test at fast: mg/100 ml blood in toto ± E.S.
Glycemia test at fast (Repetition): mg/100 ml blood in toto ± E.S.
Treatment with the dose of 200 mg/kg endoperitoneal, 2 hours before the test.
Male Sprague-Dawley rats 150 grs.

CCCCCCC1CCC(O)C1CCCCCCC(=O)O (stereo not drawn) [Compound C83, 9-hydroxy-19,20-bis-nor-prostanoic acid sodium salt]
correlation between dose and inhibition of ulcer surface area (in words) ([1]; FIG. 1): highly significant correlation between the dose and the inhibition of the surface area of the ulcer | ED50 ([1]; Rattus norvegicus, po, orally, calculated from the regression lines, read-out: DE 50 (inhibition of the surface area of the ulcer)): 37 mg/kg | Surface area of the ulcer in % with respect to surface area of the stomach (x ± Sx) ([1]; orally, 2 × 2.5 mg/kg, controls 0.80 ± 3.26): 0.57 ± 2.10% | Surface area of the ulcer in % with respect to surface area of the stomach (x ± Sx) ([1]; orally, 2 × 10 mg/kg, controls 3.60 ± 3.33): 2.13 ± 2.22% | Surface area of the ulcer in % with respect to surface area of the stomach (x ± Sx) ([1]; orally, 2 × 25 mg/kg, controls 0.80 ± 3.26): 0.33 ± 1.59% | Surface area of the ulcer in % with respect to surface area of the stomach (x ± Sx) ([1]; orally, 2 × 50 mg/kg, controls 3.57 ± 3.59): 1.30 ± 1.74% | Surface area of the ulcer in % with respect to surface area of the stomach (x ± Sx) ([1]; orally, 2 × 100 mg/kg, controls 3.60 ± 3.33): 1.97 ± 1.44% | Surface area of the ulcer in % with respect to surface area of the stomach (x ± Sx) ([1]; orally, 2 × 200 mg/kg, controls 3.57 ± 3.59, p<0.02): 0.27 ± 0.53% | Cholesterolemia ([2]; controls 91.5 ± 6.6, alcohol 81.0 ± 4.6): 56.3 ± 3.9 | Triglyceridemia ([2]; controls 97.8 ± 5.1, alcohol 169.0 ± 25.0): 85.2 ± 13.5 | triglycerides ([3]; 25 mg/kg/die by mouth, Nath diet 134.9 ± 9.4, p<0.05 vs Nath diet): 109.4 ± 6.9 | cholesterol ([3]; 25 mg/kg/die by mouth, Nath diet 333.3 ± 29.9): 380.2 ± 77.8 | cholesterol ([3]; 25 mg/kg/die endoperitoneal, controls 72.6 ± 4.3, Nath diet 333.3 ± 29.9, p<0.001 vs Nath diet): 168.3 ± 26.8 | triglycerides ([3]; 25 mg/kg/die endoperitoneal, controls 96.9 ± 9.4, Nath diet 134.9 ± 9.4, p<0.05 vs Nath diet): 91.9 ± 16.3 | LD50 (mouse): about 3000 mg/kg | LD50 [4]: ~3000 mg/kg | Rapidity ± E.S. ([5]; 1 hour before sacrifice): 1.6 ± 0.2 | Deepness (mm ± E.S.) ([5]; 1 hour before sacrifice): 29.1 ± 3.6 mm | Rapidity ± E.S. ([5]; 2 hours before sacrifice): 3.3 ± 0.7 | Deepness (mm ± E.S.) ([5]; 2 hours before sacrifice): 67.3 ± 12.6 mm | Ulcer scale (x ± Sx) (ulcer induced by aspirin; 2 × 10 mg/kg, p<0.001): 4.83 ± 1.09 | Ulcer scale (x ± Sx) (ulcer induced by aspirin; 2 × 100 mg/kg, p<0.05): 8.92 ± 1.91 | mitigation of ulcerating effect of aspirin (in words) (ulcer induced by aspirin; both doses): considerably mitigates the ulcerating effect of aspirin | cholesterol ([6]; 25 mg/kg/die endoperitoneal, controls 64.4 ± 2.8, Nath diet 180.0 ± 15.8, p<0.01 vs Nath diet): 108.3 ± 13.9 | triglycerides ([6]; 25 mg/kg/die endoperitoneal, controls 91.1 ± 13.5, Nath diet 135.2 ± 22.8): 81.5 ± 13.3 | triglycerides ([6]; 50 mg/kg/die endoperitoneal, Nath diet 135.2 ± 22.8, p<0.01 vs Nath diet): 49.1 ± 6.1 | cholesterol ([6]; 50 mg/kg/die endoperitoneal, Nath diet 180.0 ± 15.8, p<0.001 vs Nath diet): 101.8 ± 4.4 | action on smooth musculature [7]: clear prolonged action on muscle on the different kinds of smooth musculature | Glycemia at fast (± E.S.) (Glycemia test at fast; controls 63.8 ± 4.1, p < 0.001): 99.3 ± 2.7 mg/100 ml blood in toto | Glycemia at fast (Repetition) (± E.S.) (Glycemia test at fast; repetition, controls 81.1 ± 3.5, p < 0.01): 121.4 ± 9.8 mg/100 ml blood in toto
